# From patent US20260000698A1 (priority 2022, published 2026)
# Target: T1, DOT1L (Homo sapiens, UniProt Q8TEK3)
# T1 construct: purchased BPS Bioscience
# Test: Human MTase screening: DOT1L
# Type: biochemical
# Experimental: Assay conditions. The human methyltransferase inhibition assays were performed at BPS Bioscience (San Diego, CA, USA). All of the enzymatic reactions were conducted in duplicate at room temperature for 60-960 min in a 50 μL mixture containing proper methyltransferase assay buffer, S-adenosylmethionine (SAM), enzyme, and the test compound. These 50 μL reactions were carried out in wells of a substrate pre-coated plate. First, enzyme and inhibitor were added to assay wells and preincubated for 30 min at room temperature, then SAM was added to start the reaction. Final DMSO concentration was 1% in all reactions.
# After enzymatic reactions, the reaction mixtures were discarded and each of the wells was washed three times with TBST buffer, and slowly shaken with Blocking Buffer for 10 min. Wells were emptied, and 100 μL of diluted primary antibody was added. The plate was then slowly shaken for 60 minutes at room temperature. […] Immediately, the luminescence of the samples was measured in a BioTek Synergy™ 2 (Winooski, VT, USA) microplate reader using Gen5 software.
# Data analysis. […] The luminescence data/alpha counts were analyzed and compared. […] The percent activity in the presence of each compound was calculated according to the following equation: % activity=(C−C0)/(Ce−C0), where C=the luminescence/alpha counts in the presence of the compound.
# T1 sequence (Q8TEK3 whole entry): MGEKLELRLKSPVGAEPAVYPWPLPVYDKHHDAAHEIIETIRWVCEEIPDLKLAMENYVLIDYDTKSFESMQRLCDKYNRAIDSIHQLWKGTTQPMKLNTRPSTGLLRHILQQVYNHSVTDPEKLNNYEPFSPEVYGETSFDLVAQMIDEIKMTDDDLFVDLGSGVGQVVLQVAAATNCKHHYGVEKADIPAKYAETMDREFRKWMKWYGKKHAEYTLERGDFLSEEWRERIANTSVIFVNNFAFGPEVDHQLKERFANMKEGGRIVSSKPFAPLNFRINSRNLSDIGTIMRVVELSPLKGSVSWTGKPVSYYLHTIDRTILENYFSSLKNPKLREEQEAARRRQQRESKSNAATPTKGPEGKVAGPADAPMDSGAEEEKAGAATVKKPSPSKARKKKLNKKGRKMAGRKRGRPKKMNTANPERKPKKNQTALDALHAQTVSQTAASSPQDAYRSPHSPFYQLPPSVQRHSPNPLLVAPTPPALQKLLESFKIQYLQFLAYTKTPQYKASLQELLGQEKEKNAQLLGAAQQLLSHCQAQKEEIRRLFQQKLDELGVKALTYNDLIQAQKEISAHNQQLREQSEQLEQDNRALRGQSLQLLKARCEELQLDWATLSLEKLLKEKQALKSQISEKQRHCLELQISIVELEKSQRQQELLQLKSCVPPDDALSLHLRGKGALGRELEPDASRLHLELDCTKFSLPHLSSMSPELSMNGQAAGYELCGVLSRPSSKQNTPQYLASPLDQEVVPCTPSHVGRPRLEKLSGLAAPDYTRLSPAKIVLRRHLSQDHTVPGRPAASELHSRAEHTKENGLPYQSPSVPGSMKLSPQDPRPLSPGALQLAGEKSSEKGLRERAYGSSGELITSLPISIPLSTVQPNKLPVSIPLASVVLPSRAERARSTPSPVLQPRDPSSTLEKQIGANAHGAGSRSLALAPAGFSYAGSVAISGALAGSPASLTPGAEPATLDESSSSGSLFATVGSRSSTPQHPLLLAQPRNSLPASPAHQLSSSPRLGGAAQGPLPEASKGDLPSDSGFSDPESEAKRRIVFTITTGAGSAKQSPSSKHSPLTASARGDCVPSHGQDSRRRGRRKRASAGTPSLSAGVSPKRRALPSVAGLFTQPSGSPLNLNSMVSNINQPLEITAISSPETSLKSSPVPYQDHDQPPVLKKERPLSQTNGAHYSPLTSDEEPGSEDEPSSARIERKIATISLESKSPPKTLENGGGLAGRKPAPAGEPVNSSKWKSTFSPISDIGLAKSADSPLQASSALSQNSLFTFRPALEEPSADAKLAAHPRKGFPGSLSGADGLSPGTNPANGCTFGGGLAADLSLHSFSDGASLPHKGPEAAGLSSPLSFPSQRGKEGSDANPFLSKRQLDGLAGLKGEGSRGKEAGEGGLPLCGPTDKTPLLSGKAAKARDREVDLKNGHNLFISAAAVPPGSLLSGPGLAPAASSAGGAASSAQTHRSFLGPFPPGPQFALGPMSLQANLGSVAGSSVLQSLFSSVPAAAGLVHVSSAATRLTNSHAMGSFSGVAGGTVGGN
structure (smiles),measurement,value
"Nc1ncnc2c1ncn2[C@@H]1O[C@H](CNS(=O)(=O)c2ccc3ccccc3c2)[C@@H](O)[C@H]1O [Compound 3, N-(((2R,3S,4R,5R)-5-(6-Amino-9H-purin-9-yl)-3,4-dihydroxytetrahydrofuran-2-yl)methyl)naphthalene-2-sulfonamide]",inhibition at 10 µM,10%
